Test results taken from the supplement of paper PMC10307832.

Legend:
Assay in all cases: relative viability (nuclei count vs DMSO), 5 days (fraction); higher = more cells survive
[1] = compound: NCC(=O)Nc1ccc(-n2nc(C(F)(F)F)cc2-c2ccc3c(ccc4ccccc43)c2)cc1 + NC(=O)Nc1cc(-c2cccc(F)c2)sc1C(=O)N[C@H]1CCCNC1 [AZD7762] (partner 0.2 µM)
In short: (§1)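 Relative viability was taken as the ratio of nuclei in treated wells to nuclei in vehicle wells. Lung cancer cell lines in 1536-well plates received compounds by pin tool one day after seeding, either one drug alone or a fixed anchor-drug dose plus five library-drug doses (not always all listed) in √10 steps. Nuclei were counted on 4× images after 5 days of treatment, and values are medians of duplicate plates.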

[2] = compound: NCC(=O)Nc1ccc(-n2nc(C(F)(F)F)cc2-c2ccc3c(ccc4ccccc43)c2)cc1 + CS(=O)(=O)CCNCc1ccc(-c2ccc3ncnc(Nc4ccc(OCc5cccc(F)c5)c(Cl)c4)c3c2)o1 [Lapatinib] (partner 2 µM)
In short: as §1

[3] = compound: NCC(=O)Nc1ccc(-n2nc(C(F)(F)F)cc2-c2ccc3c(ccc4ccccc43)c2)cc1 + COc1cccc2cc(-c3nc([C@H]4CC[C@H](C(=O)O)CC4)n4ncnc(N)c34)[nH]c12 [OSI-027] (partner 0.5 µM)
In short: as §1

[4] = compound: NCC(=O)Nc1ccc(-n2nc(C(F)(F)F)cc2-c2ccc3c(ccc4ccccc43)c2)cc1 + CCNC(=O)c1noc(-c2cc(C(C)C)c(O)cc2O)c1-c1ccc(CN2CCOCC2)cc1 [Luminespib] (partner 0.01 µM)
In short: as §1

| Cell Line | relative viability ([1]; first compound 0.02 µM) | relative viability ([1]; first compound 0.06325 µM) | relative viability ([1]; first compound 0.2 µM) | relative viability ([1]; first compound 0.6325 µM) | relative viability ([1]; first compound 2 µM) | relative viability ([2]; first compound 0.02 µM) | relative viability ([2]; first compound 0.06325 µM) | relative viability ([2]; first compound 0.2 µM) | relative viability ([2]; first compound 0.6325 µM) | relative viability ([2]; first compound 2 µM) | relative viability ([3]; first compound 0.02 µM) | relative viability ([3]; first compound 0.06325 µM) | relative viability ([3]; first compound 0.2 µM) | relative viability ([3]; first compound 0.6325 µM) | relative viability ([3]; first compound 2 µM) | relative viability ([4]; first compound 0.02 µM) | relative viability ([4]; first compound 0.06325 µM) | relative viability ([4]; first compound 0.2 µM) | relative viability ([4]; first compound 0.6325 µM) | relative viability ([4]; first compound 2 µM) |
| --- | --- | --- | --- | --- | --- | --- | --- | --- | --- | --- | --- | --- | --- | --- | --- | --- | --- | --- | --- | --- |
| HCC-366 | 0.236 | 0.205 | 0.31 | 0.276 | 0.333 | 1.04 | 1.07 | 1.12 | 0.997 | 0.698 | 0.829 | 1.08 | 1.09 | 0.848 | 0.816 |  |  |  |  |  |
| HCC-827 | 0.213 | 0.189 | 0.245 | 0.316 | 0.235 | 0.178 | 0.201 | 0.172 | 0.199 | 0.23 | 0.771 | 0.756 | 0.751 | 0.745 | 0.734 | 0.679 | 0.852 | 0.59 | 0.731 | 0.684 |
| HOP-62 | 0.646 | 0.482 | 0.693 | 0.566 | 0.711 | 1.06 | 0.913 | 0.998 | 0.959 | 1.14 | 0.852 | 0.801 | 0.828 | 0.778 | 0.812 | 0.887 | 0.911 | 0.862 | 0.9 | 0.951 |
| IA-LM |  |  |  |  |  | 0.802 | 0.823 | 0.757 | 0.85 | 0.717 |  |  |  |  |  |  |  |  |  |  |
| LCLC-103H | 0.796 | 0.79 | 0.752 | 0.812 | 0.818 |  |  |  |  |  | 0.412 | 0.43 | 0.443 | 0.575 | 0.429 | 0.932 | 0.919 | 1.03 | 0.925 | 0.895 |
| NCI-H441 | 1.12 | 1.1 | 1.32 | 1.06 | 1.12 |  |  |  |  |  | 0.647 | 0.675 | 0.613 | 0.551 | 0.631 | 0.334 | 0.391 | 0.347 | 0.296 | 0.397 |
| NCI-H520 |  |  |  |  |  | 0.995 | 0.869 | 0.935 | 0.938 | 0.963 | 0.238 | 0.265 | 0.296 | 0.243 | 0.234 | 0.193 | 0.179 | 0.198 | 0.239 | 0.229 |
| NCI-H522 | 0.609 | 1.09 | 0.815 | 0.888 | 0.828 |  |  |  |  |  |  | 0.785 | 0.697 | 0.699 | 0.713 | 0.97 | 1.05 | 1.24 | 1.19 | 1.37 |
| NCI-H661 |  |  |  |  |  | 0.526 | 0.521 | 0.44 | 0.445 | 0.556 | 0.681 | 0.691 | 0.724 | 0.673 | 0.715 | 0.932 | 0.907 | 0.899 | 0.925 | 0.906 |
| NCI-H1299 |  |  |  |  |  | 0.987 | 0.943 | 1.02 | 0.952 | 0.972 |  |  |  |  |  |  |  |  |  |  |
| NCI-H1563 |  |  |  |  |  | 0.841 | 0.998 | 0.758 | 0.945 | 0.909 | 0.785 | 0.786 | 0.761 | 0.771 | 0.719 | 0.557 | 0.523 | 0.588 | 0.526 | 0.554 |
| NCI-H1648 | 0.893 | 0.598 | 0.74 | 0.663 | 0.588 |  |  |  |  |  | 0.248 | 0.262 | 0.257 | 0.227 | 0.273 |  |  |  |  |  |
